The values that follow come from patent US20110257256A1, “CANNABINOIDS FOR USE IN TREATING OR […] […] […]” (priority 2008, published 2011).

In brackets after ≈: the same amount, converted by molar mass. Like-named read-outs stand apart in the source and are kept apart here.

The test system of series [1] is human peripheral blood mononuclear cells (PBMC). Put plainly: Cell viability/proliferation of PBMC by MTT-test and trypan blue exclusion. The format is cell-based. Particulars: 48 h, read-out: IC50 number of viable cells. The protocol:
PBMC were isolated from whole blood obtained from healthy donors of whom written informed consent was obtained that their donated blood might be used for scientific purposes in case when it was not selected for transfusion. Separation of blood cells was performed using density centrifugation (Lymphoprep, Nycomed Pharma AS, Oslo, Norway). After isolation, PBMC were washed three times in phosphate buffered saline containing 0.2% 0.5 mM EDTA. Cells were maintained in RPMI 1640 supplemented with 10% heat-inactivated fetal calf serum (Biochrom, Berlin, Germany), 2 mM glutamine (Serva, Heidelberg, Germany) and 0.05 mg/ml gentamicin (Bio-Whittaker, Walkersville, Md.) in a humidified atmosphere containing 5% CO2 for 48 h. This procedure was observed earlier to yield best reproducible results when applied for testing of anti-inflammatory effects of compounds or drugs (Winkler et al., 2007, Int. Arch. Allergy Immunol. 142, 127-132). For each of the four experiments run in duplicates, PBMC were freshly prepared.
Consequently, the cells were stimulated or not with 10 μg/ml PHA or Con A for 48 h.
(§1) After incubation of PBMC with mitogens Con A or PHA (each 10 μg/ml) or treatment of THP-1 cells with LPS (1 μg/ml ), with or without cannabinoids for 48 h, cell viability was measured by MTT-test (3-[4,5-[…]]-2,5 diphenyl tetrazolium bromide) and by trypan blue exclusion method in three experiments performed in triplicates. No toxicity could be observed with solvent (0.1% EtOH; data not shown). IC50 were calculated by the CalcuSyn software from Biosoft, Cambridge, UK, using the original concept of Chou and Talalay (Chou and Talalay, 1984, Adv. Enzyme Regul. 22, 27-55).

The test system of series [2] is Myelomonocytic THP-1 cells. Put plainly: Cell viability of THP-1 cells by MTT-test and trypan blue exclusion. The format is cell-based. Particulars: 0.1-10 μg/ml, unstimulated or LPS (1 μg/ml) stimulated THP-1 cells, 48 h. The protocol: Myelomonocytic THP-1 cells were obtained from European Collection of Cell Cultures (ECACC). […] Afterwards, cells were stimulated or not with 1 μg/ml LPS for 48 h.
as §1

Series [3] relates to indoleamine 2,3-dioxygenase (IDO). Kind of series: IDO activity (kyn/trp by HPLC) in PBMC supernatants. The format is cell-based, human. Particulars: for IC50: Homo sapiens, PBMC; for effect of low doses on activity of the IDO enzyme: low doses 0.01-0.1 μg/ml, mitogen-stimulated PBMC.
A further series relates to neopterin formation. Put plainly: Neopterin formation in PBMC supernatants (ELISA). The format is cell-based. Particulars: Homo sapiens.
Another series has as its system IDO mRNA. Put plainly: IDO mRNA expression in PHA stimulated PBMC (real-time RT-PCR). The format is cell-based, human. Particulars: 5 μg/ml (highest concentration tested), PHA 5 μg/ml, 6 h. The protocol:
(§2) For quantification of IDO and IFN-γ gene expression, RNA was extracted from PBMC using Trizol reagent (Invitrogen, Vienna, Austria) and reverse-transcribed using Superscript II reverse transcriptase (Invitrogen). Thirty cyles of PCR were performed using Sure Start Taq polymerase (Stratagene, La Jolla, Calif.). Levels of mRNA were quantified by real-time PCR with the ABI/PRISM 7700 sequence detection system (PE Applied Biosystems, Foster City, Calif.). 18sRNA was used as an invariant endogenous control. Specific primers and an internal fluorescent TaqMan probe were designed as follows: human 18sRNA primers, 5′-[…]-3′ (SEQ ID NO:1) and 5′-[…]-3′ (SEQ ID NO:2); 18sRNA probe, 5′-FAM-[…]-TAMRA-3′ (SEQ ID NO:3); human IDO primers, 5′-[…]-3′ (SEQ ID NO:4) and 5′-[…]-3′ (SEQ ID NO:5); IDO probe, 5′-FAM-[…]-TAMRA-3′ (SEQ ID NO:6); human IFN-γ primers, 5′[…]-3′ (SEQ ID NO:7), 5′-[…]-3′ (SEQ ID NO:8); IFN-γ probe, 5′-FAM-[…]-TAMRA-3′ (SEQ ID NO:9). Relative mRNA expression was calculated by dividing the relative quantity of each PCR product by the relative quantity of 18sRNA in each sample.

Another series deals with IFN-γ mRNA. Kind of series: IFN-γ mRNA expression in PHA stimulated PBMC (real-time RT-PCR). The format is cell-based, human. Particulars: 5 μg/ml (highest concentration tested), PHA 5 μg/ml, 6 h. The protocol: as §2
Series [4] has as its system indoleamine 2,3-dioxygenase (IDO). Kind of series: IDO activity (kyn/trp by HPLC) in THP-1 cells. The format is cell-based. Particulars: for IC50: Homo sapiens, LPS (1 μg/ml) stimulated THP-1 cells, 48 h, read-out: IC50 decrease of kyn/trp (LPS-induced tryptophan degradation); for effect on tryptophan metabolism (kyn/trp): unstimulated THP-1 cells, CBD effect at the highest concentration tested.

A further series has as its target CB2 receptors (Homo sapiens, UniProt P34972). Particulars: reported; cited from earlier work.
In the next series the test system is CB1/CB2. Particulars: reported; cited from earlier work.
The mark [5] stands for this setting: Con A-stimulated PBMC (10 μg/ml).
The mark [6] stands for this setting: unstimulated PBMC, 0.01-20 μg/ml.
Setting [7] is: 48 h, Con A-stimulated PBMC (10 μg/ml), 48 h, read-out: IC50 mitogen-induced IDO activity (kyn/trp).
Where [8] appears, read: 48 h, PHA-stimulated PBMC (10 μg/ml), 48 h, read-out: IC50 mitogen-induced IDO activity (kyn/trp).
Where [9] appears, read: unstimulated PBMC, 0.01-10 μg/ml, read-out: IC50 decrease of kyn/trp.
[10] abbreviates: 48 h, Con A-stimulated PBMC (10 μg/ml), 48 h, read-out: IC50 mitogen-induced neopterin production.
The mark [11] stands for this setting: 48 h, PHA-stimulated PBMC (10 μg/ml), 48 h, read-out: IC50 mitogen-induced neopterin production.
[12] abbreviates: unstimulated PBMC, read-out: IC50 release of neopterin.

Chain of CB2 receptors (P34972 whole entry): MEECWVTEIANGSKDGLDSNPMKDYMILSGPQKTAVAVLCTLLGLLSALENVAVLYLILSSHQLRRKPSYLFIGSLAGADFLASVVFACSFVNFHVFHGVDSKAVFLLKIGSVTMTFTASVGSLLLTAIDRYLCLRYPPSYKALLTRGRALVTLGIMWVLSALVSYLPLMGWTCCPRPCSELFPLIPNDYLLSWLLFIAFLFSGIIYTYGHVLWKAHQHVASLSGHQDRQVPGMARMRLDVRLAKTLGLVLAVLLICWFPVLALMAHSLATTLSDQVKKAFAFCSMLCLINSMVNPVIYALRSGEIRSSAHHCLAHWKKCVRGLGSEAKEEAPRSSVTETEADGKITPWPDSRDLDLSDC

Regarding `C=C(C)[C@@H]1CCC(C)=C[C@H]1c1c(O)cc(CCCCC)cc1O` [CBD, 2-[(1R,6R)-3-methyl-6-prop-1-en-2-yl-1-cyclohex-2-enyl]-5-pentylbenzene-1,3-diol], the IC50 in series [1] (setting [5]) was 8.6 µg/mL (≈ 27.3 µM); in [1] (PHA-stimulated PBMC (10 μg/ml)) it was 8.5 µg/mL (≈ 27 µM); in series [1] (setting [6]), 7.3 µg/mL (≈ 23.2 µM); in series [3] (setting [7]), 2.8 µg/mL (≈ 8.9 µM); in [3] (setting [8]), 1.4 µg/mL (≈ 4.45 µM); in series [3] (setting [9]), 1.2 µg/mL (≈ 3.82 µM). The IC50 with neopterin formation (setting [10]) amounted to 3.1 µg/mL (≈ 9.86 µM); in the series on neopterin formation (setting [11]), 3.7 µg/mL (≈ 11.8 µM); in the series on neopterin formation (setting [12]) it was 8.2 µg/mL (≈ 26.1 µM); in series [4] it was 0.3 µg/mL (≈ 0.954 µM). Moreover, in series [2], the “influence on viability of THP-1 cells” value is recorded as “did not show any influence”. Besides, in series [3], the “effect of low doses on activity of the IDO enzyme” value is “modest but significant increase”. For the same compound, the “inhibition of mitogen-stimulated expression of IDO mRNA” value in the series on IDO mRNA is given as “almost completely, inhibit”. In addition, the “inhibition of mitogen-stimulated expression of IFN-γ mRNA” value in the series on IFN-γ mRNA is reported as “almost completely, inhibit”. Moreover, the “effect on tryptophan metabolism (kyn/trp)” value in [4] was “faint suppression of tryptophan degradation”. For the same compound, the affinity entry on CB2 receptors was “micromolar range”. The “KB antagonism of CB1/CB2 agonists” value in the series on CB1/CB2 is recorded as “low nanomolar range”.

As to `CCCCCc1cc(O)c2c(c1)OC(C)(C)[C@@H]1CCC(C)=C[C@@H]21` [THC, (6aR,10aR)-6,6,9-Trimethyl-3-pentyl-6a, 7,8,10a-tetrahydro-6H-benzo[c]chromen-1-ol], the IC50 in series [1] (setting [5]) was 17.5 µg/mL (≈ 55.6 µM); in [1] (PHA-stimulated PBMC (10 μg/ml)) it was 15.2 µg/mL (≈ 48.3 µM); in series [1] (setting [6]) it was 14.5 µg/mL (≈ 46.1 µM); in series [3] (setting [7]) it was 4.2 µg/mL (≈ 13.4 µM); in [3] (setting [8]), 5.5 µg/mL (≈ 17.5 µM); in series [3] (setting [9]), 2.6 µg/mL (≈ 8.27 µM). For the same compound, the IC50 was determined as 6.7 µg/mL (≈ 21.3 µM) in the series on neopterin formation (setting [10]), 5.3 µg/mL (≈ 16.9 µM) in the series with neopterin formation (setting [11]), 16.7 µg/mL (≈ 53.1 µM) in the series with neopterin formation (setting [12]) and 0.6 µg/mL (≈ 1.91 µM) in series [4]. Moreover, the “influence on viability of THP-1 cells” value in [2] was “did not show any influence”. Besides, in series [3], the “effect of low doses on activity of the IDO enzyme” value is on record as “modest but significant increase”. The “inhibition of mitogen-stimulated expression of IDO mRNA” value in the series on IDO mRNA is recorded as “almost completely, inhibit”. The “inhibition of mitogen-stimulated expression of IFN-γ mRNA” value in the series on IFN-γ mRNA is listed as “almost completely, inhibit”. The “effect on tryptophan metabolism (kyn/trp)” value in series [4] was “did not influence tryptophan metabolism”.
